Test results from BindingDB's records for doi:10.1016/j.bmcl.2013.02.064 (Toronto General Research Institute, 2013).

Experiment: Inhibition of FCgamma receptor in human PBMC assessed as inhibition of opsonized RBC phagocytosis incubated for 1 hr prior to RBC addition measured after 2 hrs by monocyte monolayer assay

**Q.** Which IC50 does the source give for `Cc1cc(SSc2cc(C)nn2-c2ccccc2)n(-c2ccccc2)n1` here?
**A.** Its IC50 is 100 nM.
